# Data: patent US20150307938A1, “METHOD TO IDENTIFY A NOVEL CLASS OF IMMUNOLOGIC ADJUVANTS” (Lancell, L.L.C., priority 2011, published 2015)
# System: skin
# Test: Affymetrix microarray of skin, DBP-4 hr and analogs vs. untreated; gene selection by log-2 fold change, Wilcoxon, Kendall tau (Tables 8, 9)
# Assay type: in vivo, mouse
# Conditions: for Kendall: Kendall tau coefficient
# [1] = DBP-4 hr vs. untreated, rank-sum p-value
# [2] = Kendall tau, expression vs. output
smiles,measurement,setting,value
"CCCCOC(=O)c1ccccc1C(=O)OCCCC [DBP, dibutylphthalate]",Gm10229 XM_003086003_at Wilcoxon,[1],Yes
same,Gsdmc NM_031378_at Wilcoxon,[1],Yes
same,H19 NR_001592_at Wilcoxon,[1],Yes
same,Il1rl1 NM_001025602_at Wilcoxon,[1],No
same,Inpp5a NM_001127363_at Wilcoxon,[1],No
same,Inpp5d NM_001110192_at Wilcoxon,[1],No
same,Inpp5d NM_001110193_at Wilcoxon,[1],No
same,Klhdc5 NM_001081237_at Wilcoxon,[1],No
same,Krt33a NM_027983_at Wilcoxon,[1],Yes
same,Krt34 NM_027563_at Wilcoxon,[1],Yes
same,Krtap1-5 NM_027157_at Wilcoxon,[1],Yes
same,Krtap3-1 NM_023511_at Wilcoxon,[1],Yes
same,Krtap3-3 NM_025524_at Wilcoxon,[1],Yes
same,Krtap4-2 NM_026807_at Wilcoxon,[1],Yes
same,Krtap5-2 NM_027844_at Wilcoxon,[1],Yes
same,Krtap9-3 NM_029351_at Wilcoxon,[1],Yes
same,Krtap13-1 NM_183189_at Wilcoxon,[1],Yes
same,Krtap16-1 NM_130870_at Wilcoxon,[1],Yes
same,Krtap16-5 NM_130857_at Wilcoxon,[1],Yes
same,Krtap16-7 NM_028621_at Wilcoxon,[1],Yes
same,Krtap16-8 NM_130856_at Wilcoxon,[1],Yes
same,Krtap16-9 NM_130876_at Wilcoxon,[1],Yes
same,Krtap16-10 NM_183296_at Wilcoxon,[1],Yes
same,Krtap28-13 XM_896507_at Wilcoxon,[1],Yes
same,Krtap28-13 XM_919110_at Wilcoxon,[1],Yes
same,LOC100503254 XM_003085741_at Wilcoxon,[1],Yes
same,Lmod2 NM_053098_at Wilcoxon,[1],Yes
same,Lyz2 NM_017372_at Wilcoxon,[1],Yes
same,Mfhas1 NM_001081279_at Wilcoxon,[1],No
same,Mfsd4 NM_001114662_at Wilcoxon,[1],No
same,Mia1 NM_019394_at Wilcoxon,[1],Yes
same,Mrpl44 NM_001081210_at Wilcoxon,[1],No
same,Ms4a6d NM_026835_at Wilcoxon,[1],Yes
same,Mylpf NM_016754_at Wilcoxon,[1],Yes
same,Myoz2 NM_021503_at Wilcoxon,[1],Yes
same,Ncbp1 NM_001033201_at Wilcoxon,[1],No
same,Nolc1 NM_001039351_at Wilcoxon,[1],No
same,Nolc1 NM_001039352_at Wilcoxon,[1],No
same,Nolc1 NM_001039353_at Wilcoxon,[1],No
same,Nrap NM_198059_at Wilcoxon,[1],Yes
same,Nusap1 NM_133851_at Wilcoxon,[1],Yes
same,Ogfrl1 NM_001081079_at Wilcoxon,[1],No
same,Olr1 NM_138648_at Wilcoxon,[1],Yes
same,Oxr1 NM_001130163_at Wilcoxon,[1],No
same,Oxr1 NM_001130164_at Wilcoxon,[1],No
same,Oxr1 NM_001130165_at Wilcoxon,[1],No
same,Oxr1 NM_001130166_at Wilcoxon,[1],No
same,Pgam2 NM_018870_at Wilcoxon,[1],Yes
same,Pigyl NM_001082532_at Wilcoxon,[1],No
same,Pparg NM_001127330_at Wilcoxon,[1],No
same,Ppih NM_001110129_at Wilcoxon,[1],No
same,Prg4 NM_021400_at Wilcoxon,[1],Yes
same,Retnla NM_020509_at Wilcoxon,[1],Yes
same,Rffl NM_001007465_at Wilcoxon,[1],No
same,Rn18s NR_003278_at Wilcoxon,[1],Yes
same,Rpl3l NM_025425_at Wilcoxon,[1],Yes
same,Slc39a14 NM_001135151_at Wilcoxon,[1],No
same,Sln NM_025540_at Wilcoxon,[1],Yes
same,Smpx NM_025357_at Wilcoxon,[1],Yes
same,Tnfrsf9 NM_001077508_at Wilcoxon,[1],No
same,Tnfrsf9 NM_001077509_at Wilcoxon,[1],No
same,Tnni1 NM_021467_at Wilcoxon,[1],Yes
same,Trdn NM_029726_at Wilcoxon,[1],Yes
same,Trf NM_133977_at Wilcoxon,[1],Yes
same,Trp63 NM_001127259_at Wilcoxon,[1],No
same,Trp63 NM_001127260_at Wilcoxon,[1],No
same,Trp63 NM_001127262_at Wilcoxon,[1],No
same,Trp63 NM_001127264_at Wilcoxon,[1],No
same,Ttn NM_028004_at Wilcoxon,[1],Yes
same,Wbp1 NM_001083922_at Wilcoxon,[1],No
same,Wbp1 NM_001083923_at Wilcoxon,[1],No
same,Wfdc2 NM_026323_at Wilcoxon,[1],Yes
same,Zfp68 NM_001044747_at Wilcoxon,[1],No
same,Zfp187 NM_001013786_at Wilcoxon,[1],No
same,Zfp518b NM_001081144_at Wilcoxon,[1],No
same,Zfp943 NM_001025373_at Wilcoxon,[1],No
same,Wilcoxon,"Egr1 NM_007913_at, DBP-4 hr vs. untreated",Yes
same,Kendall,Egr1 NM_007913_at,No
same,Wilcoxon,"Ehf NM_007914_at, DBP-4 hr vs. untreated",Yes
same,Kendall,Ehf NM_007914_at,No
same,Wilcoxon,"Ereg NM_007950_at, DBP-4 hr vs. untreated",Yes
same,Kendall,Ereg NM_007950_at,No
same,Wilcoxon,"Fgfbp1 NM_008009_at, DBP-4 hr vs. untreated",No
same,Kendall,Fgfbp1 NM_008009_at,No
same,Wilcoxon,"Gch1 NM_008102_at, DBP-4 hr vs. untreated",Yes
same,Kendall,Gch1 NM_008102_at,No
same,Wilcoxon,"Gjb2 NM_008125_at, DBP-4 hr vs. untreated",Yes
same,Kendall,Gjb2 NM_008125_at,No
same,Wilcoxon,"Gpr65 NM_008152_at, DBP-4 hr vs. untreated",Yes
same,Kendall,Gpr65 NM_008152_at,No
same,1110032A04Rik NM_133675_at Kendall,[2],No
same,2510002D24Rik NM_001033164_at Kendall,[2],Yes
same,2510009E07Rik NM_001001881_at Kendall,[2],Yes
same,2610528A11Rik XR_105647_at Kendall,[2],No
same,1500015010Rik NM_024283_at Kendall,[2],No
same,3110079015Rik NM_028473_at Kendall,[2],No
same,A2m NM_175628_at Kendall,[2],No
same,AY026312 NM_133359_at Kendall,[2],No
same,Actn2 NM_033268_at Kendall,[2],No
same,Akr1c14 NM_134072_at Kendall,[2],No
same,Aldh7a1 NM_001127338_at Kendall,[2],Yes
same,Aox4 NM_023631_at Kendall,[2],No
same,Asb5 NM_029569_at Kendall,[2],No
same,Atp2a2 NM_001110140_at Kendall,[2],Yes
same,Atp13a3 NM_001128094_at Kendall,[2],Yes
same,Atp13a3 NM_001128096_at Kendall,[2],Yes
same,Bcr NM_001081412_at Kendall,[2],Yes
same,Camk2g NM_001039138_at Kendall,[2],Yes
same,Camk2g NM_001039139_at Kendall,[2],Yes
same,Ccl8 NM_021443_at Kendall,[2],No
same,Ccl24 NM_019577_at Kendall,[2],No
same,Cd209d NM_130904_at Kendall,[2],No
same,Ckmt2 NM_198415_at Kendall,[2],No
same,Cldn8 NM_018778_at Kendall,[2],No
same,Clec4n NM_020001_at Kendall,[2],No
same,Cmya5 NM_023821_at Kendall,[2],No
same,Comp NM_016685_at Kendall,[2],No
same,Corin NM_016869_at Kendall,[2],No
same,Crispld1 NM_031402_at Kendall,[2],No
same,Cxcl10 NM_021274_at Kendall,[2],No
same,Cxcr6 NM_030712_at Kendall,[2],No
same,Cyth1 NM_001112699_at Kendall,[2],Yes
same,Cyth1 NM_001112700_at Kendall,[2],Yes
same,Dbp NM_016974_at Kendall,[2],No
same,Deptor NM_001037937_at Kendall,[2],Yes
same,Dlgap4 NM_001042487_at Kendall,[2],Yes
same,Dlgap4 NM_001042488_at Kendall,[2],Yes
same,Ear5 NM_019398_at Kendall,[2],No
same,Fam134b NM_001034851_at Kendall,[2],Yes
same,Gcdh NM_001044744_at Kendall,[2],Yes
same,Gm10228 XM_001474297_at Kendall,[2],No
same,Gm10228 XM_003086004_at Kendall,[2],No
same,Gm10229 XM_003086003_at Kendall,[2],No
same,Gsdmc NM_031378_at Kendall,[2],No
same,H19 NR_001592_at Kendall,[2],No
same,Il1rl1 NM_001025602_at Kendall,[2],Yes
same,Inpp5a NM_001127363_at Kendall,[2],Yes
same,Inpp5d NM_001110192_at Kendall,[2],Yes
same,Inpp5d NM_001110193_at Kendall,[2],Yes
same,Klhdc5 NM_001081237_at Kendall,[2],Yes
same,Krt33a NM_027983_at Kendall,[2],No
same,Krt34 NM_027563_at Kendall,[2],No
same,Krtap1-5 NM_027157_at Kendall,[2],No
same,Krtap3-1 NM_023511_at Kendall,[2],No
same,Krtap3-3 NM_025524_at Kendall,[2],No
same,Krtap4-2 NM_026807_at Kendall,[2],No
same,Krtap5-2 NM_027844_at Kendall,[2],No
same,Krtap9-3 NM_029351_at Kendall,[2],No
same,Krtap13-1 NM_183189_at Kendall,[2],No
same,Krtap16-1 NM_130870_at Kendall,[2],No
same,Krtap16-5 NM_130857_at Kendall,[2],No
same,Krtap16-7 NM_028621_at Kendall,[2],No
same,Krtap16-8 NM_130856_at Kendall,[2],No
same,Krtap16-9 NM_130876_at Kendall,[2],No
same,Krtap16-10 NM_183296_at Kendall,[2],No
same,Krtap28-13 XM_896507_at Kendall,[2],No
same,Krtap28-13 XM_919110_at Kendall,[2],No
same,LOC100503254 XM_003085741_at Kendall,[2],No
same,Lmod2 NM_053098_at Kendall,[2],No
same,Lyz2 NM_017372_at Kendall,[2],No
same,Mfhas1 NM_001081279_at Kendall,[2],Yes
same,Mfsd4 NM_001114662_at Kendall,[2],Yes
same,Mia1 NM_019394_at Kendall,[2],No
same,Mrpl44 NM_001081210_at Kendall,[2],Yes
same,Ms4a6d NM_026835_at Kendall,[2],No
same,Mylpf NM_016754_at Kendall,[2],No
same,Myoz2 NM_021503_at Kendall,[2],No
same,Ncbp1 NM_001033201_at Kendall,[2],Yes
same,Nolc1 NM_001039351_at Kendall,[2],Yes
same,Nolc1 NM_001039352_at Kendall,[2],Yes
same,Nolc1 NM_001039353_at Kendall,[2],Yes
same,Nrap NM_198059_at Kendall,[2],No
same,Nusap1 NM_133851_at Kendall,[2],No
same,Ogfrl1 NM_001081079_at Kendall,[2],Yes
same,Olr1 NM_138648_at Kendall,[2],No
same,Oxr1 NM_001130163_at Kendall,[2],Yes
same,Oxr1 NM_001130164_at Kendall,[2],Yes
same,Oxr1 NM_001130165_at Kendall,[2],Yes
